Test results taken from patent US11992499B2, “Quinoline derivatives for use in the treatment of inflammation diseases” (ABIVAX, priority 2018, dated 2024).
Entries after “also recorded” stand apart in the source; their conditions may differ. Read-outs that look alike come from different tables or passages of the source.

Experiments:
[1] = test system: STAM model of non-alcoholic steatohepatitis; assay: STAM model of NASH: plasma ALT; format: in vivo, mice; settings: for Plasma ALT (mean ± SD): n = 8
Procedure: NASH was induced in 48 male mice by a single subcutaneous injection of 200 μg streptozotocin (STZ, Sigma-Aldrich, USA) solution 2 days after birth and feeding with high fat diet (HFD, 57 kcal % fat, Cat #HFD32, CLEA Japan, Inc., Japan) after 4 weeks of age. Compound A was administered at 3 dose levels of 10, 20 and 40 mg/kg once daily from 6 to 9 weeks of age. Compound B was administered at a dose of 40 mg/kg once daily from 6 to 9 weeks of age. Telmisartan was administered at a dose of 10 mg/kg once daily from 6 to 9 weeks of age. For plasma biochemistry, non-fasting blood was collected in polypropylene tubes with anticoagulant (Novo-Heparin, Mochida Pharmaceutical Co. Ltd., Japan) and centrifuged at 1,000×g for 15 minutes at 4° C. The supernatant was collected and stored at −80° C. until use. Plasma ALT was measured by FUJI DRI-CHEM 7000 (Fujifilm, Japan).

[2] = test system: STAM model of non-alcoholic steatohepatitis; format: in vivo; settings: for Liver weight (mean ± SD) / Liver-to-body weight ratio (mean ± SD): n = 8
From the text: To prepare dosing solution, Compound A and B were weighed and suspended in Vehicle which was composed of 20% of Vehicle-A1 and 80% of Vehicle-A2. Vehicle-A1 was composed of 0.5% (w/v) Carboxymethyl cellulose (CMC) 400-800 centipoises in water for injection+2.5% (w/v) Tween 80. Vehicle-A2 was composed of 0.5% (w/v) Carboxymethyl cellulose (CMC) 400-800 centipoises in water for injection. Telmisartan (Micardis®) was purchased from Boehringer Ingelheim GmbH (Germany) and dissolved in pure water.
NASH was induced in 48 male mice by a single subcutaneous injection of 200 μg streptozotocin (STZ, Sigma-Aldrich, USA) solution 2 days after birth and feeding with high fat diet (HFD, 57 kcal % fat, Cat #HFD32, CLEA Japan, Inc., Japan) after 4 weeks of age.
Compound A and B, and Telmisartan were administered orally in a volume of 10 mL/kg.
Compound A was administered at 3 dose levels of 10, 20 and 40 mg/kg once daily from 6 to 9 weeks of age. Compound B was administered at a dose of 40 mg/kg once daily from 6 to 9 weeks of age. Telmisartan was administered at a dose of 10 mg/kg once daily from 6 to 9 weeks of age.
C57BL/6 mice (14-day-pregnant female) were obtained from Japan SLC, Inc. (Japan). All animals used in the study were housed and cared for in accordance with the Japanese Pharmacological Society Guidelines for Animal Use.
Group 1: Vehicle Eight NASH mice were orally administered vehicle [20% of Vehicle-A1 and 80% of Vehicle-A2] in a volume of 10 mL/kg once daily from 6 to 9 weeks of age.
Eight NASH mice were orally administered vehicle supplemented with Compound A at a dose of 10 mg/kg once daily from 6 to 9 weeks of age.
Eight NASH mice were orally administered vehicle supplemented with Compound A at a dose of 20 mg/kg once daily from 6 to 9 weeks of age.
Eight NASH mice were orally administered vehicle supplemented with Compound A at a dose of 40 mg/kg once daily from 6 to 9 weeks of age.
Eight NASH mice were orally administered vehicle supplemented with Compound B at a dose of 40 mg/kg once daily from 6 to 9 weeks of age.
Eight NASH mice were orally administered pure water supplemented with Telmisartan at a dose of 10 mg/kg once daily from 6 to 9 weeks of age.
The viability, clinical signs and behavior were monitored daily. Body weight was recorded before the treatment. […] The animals were sacrificed at 9 weeks of age by exsanguination through direct cardiac puncture under isoflurane anesthesia (Pfizer Inc.).

[3] = test system: STAM model of non-alcoholic steatohepatitis; assay: STAM model of NASH: Sirius red staining, fibrosis area; format: in vivo, mice; settings: for Sirius red-positive area (fibrosis area, mean ± SD): n = 8
Procedure: NASH was induced in 48 male mice by a single subcutaneous injection of 200 μg streptozotocin (STZ, Sigma-Aldrich, USA) solution 2 days after birth and feeding with high fat diet (HFD, 57 kcal % fat, Cat #HFD32, CLEA Japan, Inc., Japan) after 4 weeks of age. Compound A was administered at 3 dose levels of 10, 20 and 40 mg/kg once daily from 6 to 9 weeks of age. Compound B was administered at a dose of 40 mg/kg once daily from 6 to 9 weeks of age. Telmisartan was administered at a dose of 10 mg/kg once daily from 6 to 9 weeks of age. For HE staining, sections were cut from paraffin blocks of liver tissue prefixed in Bouin's solution and stained with Lillie-Mayer's Hematoxylin (Muto Pure Chemicals Co., Ltd., Japan) and eosin solution (FUJIFILM Wako Pure Chemical Corporation). NAFLD Activity score (NAS) was calculated according to the criteria of Kleiner (Kleiner D E. et al., Hepatology, 2005; 41:1313). To visualize collagen deposition, Bouin's fixed liver sections were stained using picro-Sirius red solution (Waldeck, Germany). For quantitative analysis of fibrosis area, bright field images of Sirius red-stained sections were captured around the central vein using a digital camera (DFC295; Leica, Germany) at 200-fold magnification, and the positive areas in 5 fields/section were measured using ImageJ software (National Institute of Health, USA).

[4] = 10 mg/kg PO QD (Compound A low, Telmisartan groups)
[5] = 10 mg/kg PO QD, 6-9 wks of age (Compound A low, Telmisartan groups)
[6] = 20 mg/kg PO QD (Compound A middle group)
[7] = 20 mg/kg PO QD, 6-9 wks of age (Compound A middle group)
[8] = 40 mg/kg PO QD (Compound A high, Compound B groups)
[9] = 40 mg/kg PO QD, 6-9 wks of age (Compound A high, Compound B groups)

FC(F)(F)Oc1ccc(Nc2ccc3cccc(Cl)c3n2)cc1 [Compound A, 8-Chloro-N-(4-(trifluoromethoxy)phenyl)quinolin-2-amine]
Plasma ALT level compared with the Vehicle group [1, 4]: tended to increase; also recorded: increasing trend
Plasma ALT (mean ± SD) [1, 5]: 75 ± 31 U/L
Plasma ALT level compared with the Vehicle group [1, 6]: tended to increase; also recorded: increasing trend
Plasma ALT (mean ± SD) [1, 7]: 91 ± 15 U/L
Plasma ALT level compared with the Vehicle group [1, 8]: significant increase
Plasma ALT (mean ± SD) [1, 9]: 133 ± 100 U/L
Mean liver weight compared with the Vehicle group [2, 4]: significant increase
Mean liver-to-body weight ratio compared with the Vehicle group [2, 4]: tended to increase
Liver weight (mean ± SD) [2, 5]: 1662 ± 254 mg
Liver-to-body weight ratio (mean ± SD) [2, 5]: 8.4 ± 1.8%
Mean liver weight compared with the Vehicle group [2, 6]: no significant difference
Mean liver-to-body weight ratio compared with the Vehicle group [2, 6]: tended to increase
Liver weight (mean ± SD) [2, 7]: 1500 ± 77 mg
Liver-to-body weight ratio (mean ± SD) [2, 7]: 7.6 ± 0.4%
Mean liver weight compared with the Vehicle group [2, 8]: tended to increase
Mean liver-to-body weight ratio compared with the Vehicle group [2, 8]: tended to increase
Liver weight (mean ± SD) [2, 9]: 1654 ± 145 mg
Liver-to-body weight ratio (mean ± SD) [2, 9]: 8.5 ± 1.1%
Sirius red-positive area (fibrosis area, mean ± SD) [3, 5]: 0.70 ± 0.11%
Fibrosis area (Sirius red-positive area) compared with the Vehicle group [3, 6]: tended to decrease; also recorded: decreasing trends
Sirius red-positive area (fibrosis area, mean ± SD) [3, 7]: 0.65 ± 0.13%
Sirius red-positive area (fibrosis area, mean ± SD) [3, 9]: 0.68 ± 0.14%
Pathological deposition of collagen in the liver (Sirius red staining) ([3]; summary statement, dose not stated): decreasing trend
